Measurements: PMC11864979, “First-in-class ultralong-target-residence-time p38α inhibitors as a mitosis-targeted therapy for colorectal cancer” (Nature Cancer, 2025)
Several values for one entry are separate records, joined by “and”; a condition that tells them apart may be missing. Equal values may be shown once. Read-outs that look alike come from different tables or passages of the source.

Tests used:
KAP organoids = assay: cell viability in KAP organoids (CellTiter-Glo); assay type: cell-based, mouse; settings: for viability at 1 µM: Mus musculus
Method: (§1) For in vitro treatment studies, organoids were mechanically dissociated and digested using TrypLE supplemented with 100 µg ml^−1 DNaseI and 10.5 µM Y-27632 dihydrochloride (Invitrogen) at 37 °C. A total of 1,000–2,000 single cells were plated per well in white 96-well plates (Greiner) in culture medium containing 10% GFR Matrigel or Cultrex BME. The treatment with doxycycline (5 µg ml^−1), pharmacological inhibitors or corresponding volumes of DMSO was started 24 h after plating. Doxycycline was obtained from Sigma-Aldrich. […] Cell viability was measured by means of CellTiter-Glo 3D or CellTiter-Glo 2.0 reagent (Promega) according to the manufacturers’ instructions and the Infinite M Plex reader (Tecan, i-control version 3.9.1 software). Results were normalized to vehicle (DMSO) or to shNC. For cell-doubling assays, the cell number was quantified at the corresponding time points using Guava EasyCyte flow cytometer (Luminex, CytoSoft v5.2 software).

KAP^2D cells [1] = assay: annexin V apoptosis analysis in KAP^2D cells; assay type: cell-based, mouse; settings: for Annexin V+ cells: Fig. 5a
Method: Apoptosis was analyzed with the FITC annexin V apoptosis detection kit (Biolegend). Both measurements were performed with FACS Canto II (BD) and physical parameters were used to exclude cell debris and cell doublets.

PDO7 = assay: cell viability in patient-derived CRC organoids PDO7; assay type: cell-based, human; settings: PDO7, 1 µM, 4 days
Method: as §1

COLO 205 = assay: cell viability in human CRC cell line COLO 205; assay type: cell-based
Method: (§2) To generate KAP^2D cells, KAP organoids were isolated from Matrigel, fragmented by mechanical dissociation and plated without any extracellular matrix on common cell culture dishes. Phoenix-Eco packaging cells (CRL-3214), HCT-15 (CCL-225), HCT 116 (CCL-247), COLO 205 (CCL-222), LS 174T (CL-188), RKO (CRL-2577) and HT-29 (HTB-38) were obtained from the American Type Culture Collection. The cells were cultured at 37 °C and 7% CO2 with RPMI (KAP^2D cells) or DMEM (other cell lines), supplemented with 10% FBS and penicillin–streptomycin. KAP^2D cells were authenticated using PCR (Kras locus and Trp53 locus). Phoenix-Eco packaging cells and HCT-15, HCT 116, COLO 205, LS 174T, RKO and HT-29 cells were authenticated by the provider using short tandem repeat profiling. No commonly misidentified cell lines were used. Mycoplasma contamination was excluded by a PCR-based analysis.
as §1

KAP^2D cells [2] = assay: quantification of viable KAP^2D cells over time (cell-doubling assay); assay type: cell-based, mouse; settings: Fig. 4i
Method: The treatment with doxycycline (5 µg ml^−1), pharmacological inhibitors or corresponding volumes of DMSO was started 24 h after plating. […] Cell viability was measured by means of CellTiter-Glo 3D or CellTiter-Glo 2.0 reagent (Promega) according to the manufacturers’ instructions and the Infinite M Plex reader (Tecan, i-control version 3.9.1 software). Results were normalized to vehicle (DMSO) or to shNC. For cell-doubling assays, the cell number was quantified at the corresponding time points using Guava EasyCyte flow cytometer (Luminex, CytoSoft v5.2 software).

PDO10 = assay: cell viability in patient-derived CRC organoids PDO10; assay type: cell-based, human
Method: as §1

HT-29 = assay: cell viability in human CRC cell line HT-29; assay type: cell-based; settings: ED Fig. 9h, replicates
Method: as §2, §1

## CNC(=O)c1ccc2c(c1)C(=O)c1ccc(Nc3ccc(F)c(NC(=O)C4CC4)c3)cc1CC2 [Compound 2015]
KAP organoids; Fig. 2b, compound screen, replicates
  Cell viability (%): 20.98% and 10.41% and 17.65%
KAP organoids; Fig. 2f, 0,5 µM, replicates, 5 µM
  Cell viability (%): 20.49% and 19.41%
KAP organoids; Fig. 2f, 0,25 µM, replicates, 25 µM
  Cell viability (%): 76.91% and 71.00%
KAP organoids; Fig. 2f, 1 µM, replicates
  Cell viability (%): 22.79% and 21.48%
KAP organoids; Fig. 2f, 1 µM, replicates, read-out: Cell viability (%)
  viability at 1 µM: 22.2%
KAP organoids; drug screen in KAP organoids, 1 µM concentration, n = 3, mean, read-out: Cell viability (% of DMSO)
  viability at 1 µM: 16.4%
KAP organoids; viability assay
  induction of cell death in KAP organoids (in words): increased cell death induction
KAP^2D cells [1]; 1 d of treatment
  Annexin V+ cells: 23.30% and 25.40% and 24.30% and 22.30% and 24.90% and 20.90%
KAP^2D cells [1]; 2 d of treatment
  Annexin V+ cells: 41.00% and 47.90% and 34.70% and 29.60% and 31.10% and 30.20%
KAP^2D cells [1]; 3 d of treatment
  Annexin V+ cells: 53.10% and 40.00% and 40.60% and 42.30% and 39.50% and 37.30%
KAP^2D cells [1]; 4 d of treatment
  Annexin V+ cells: 66.80% and 62.60% and 62.90% and 52.60% and 53.50% and 56.70%
KAP^2D cells [1]; KAP^2D, after 3–4 days of treatment
  annexin V positivity (in words): strongly increased annexin V positivity
PDO7; Homo sapiens, 96 h, read-out: Cell viability (%)
  viability at 1 µM: 5.06%
PDO7; 1 µM
  Cell viability (%): 7.93% and 9.20%
COLO 205; 0.0137 µM, 4 d
  COLO 205 Cell viability (%): 86.20% and 87.62% and 93.54% and 93.70% and 89.28%
COLO 205; 0.0412 µM, 4 d
  COLO 205 Cell viability (%): 89.23% and 86.13% and 86.46% and 84.55% and 84.12%
COLO 205; 0.1235 µM, 4 d
  COLO 205 Cell viability (%): 81.05% and 83.81% and 80.44% and 77.94% and 85.49% and 51.55%
COLO 205; 1.1111 µM, 4 d
  COLO 205 Cell viability (%): 10.16% and 10.58% and 11.54% and 5.54% and 4.72% and 3.60%
COLO 205; 3.3333 µM, 4 d
  COLO 205 Cell viability (%): 11.93% and 11.65% and 12.34% and 6.53% and 6.09% and 5.93%
COLO 205; 10.0000 µM, 4 d
  COLO 205 Cell viability (%): 14.19% and 14.06% and 18.78% and 17.19% and 10.60%
COLO 205; Homo sapiens, 96 h, COLO 205, 4 d of treatment
  IC50: 151 nM
COLO 205; Homo sapiens, COLO 205, 96 h, 0.0137 µM, 4 d
  viability at 0.0137 µM: 88.4%
COLO 205; Homo sapiens, COLO 205, 96 h, 0.0412 µM, 4 d
  viability at 0.0412 µM: 88.8%
COLO 205; Homo sapiens, COLO 205, 96 h, 10.0000 µM, 4 d, read-out: COLO 205 Cell viability (%)
  viability at 10 µM: 13.9%
KAP^2D cells [2]; 0 h of treatment
  Number of cells: 41307.05 and 44263.95 and 43595.63 and 48502.24 and 40389.64
KAP^2D cells [2]; 12 h of treatment
  Number of cells: 56623.49 and 67064.09 and 57491.63 and 61648.82 and 68603.21 and 63323.28
KAP^2D cells [2]; 24 h of treatment
  Number of cells: 66705.14 and 74668.97 and 68938.05 and 94046.77 and 77517.08 and 74107.42
KAP^2D cells [2]; 36 h of treatment
  Number of cells: 95730.63 and 106064.51 and 93579.45 and 106339.60 and 110499.20 and 87144.95
KAP^2D cells [2]; 48 h of treatment
  Number of cells: 89649.37 and 121264.28 and 95171.59 and 108694.60 and 121883.40 and 116976.50
KAP^2D cells [2]; 60 h of treatment
  Number of cells: 136203.08 and 127468.86 and 129997.76 and 163066.30 and 164108.30 and 135189.10
PDO10; Homo sapiens, 96 h, PDO10, 1 µM, 4 days, read-out: Cell viability (%)
  viability at 1 µM: 32.9%
PDO10; PDO10, 0.5 µM, 4 d, 0.5 µM
  Cell viability (%): 34.24% and 30.71% and 56.53%
PDO10; PDO10, 1 µM, 4 days, 1 µM
  Cell viability (%): 48.68% and 34.77%
HT-29; 0.0137 µM, Repetition
  HT-29 Cell viability (%): 96.89% and 103.43%
HT-29; 0.0137 µM, first experiment
  HT-29 Cell viability (%): 95.39% and 93.39%
HT-29; 0.0412 µM, Repetition
  HT-29 Cell viability (%): 87.26% and 92.22%
HT-29; 0.0412 µM, first experiment
  HT-29 Cell viability (%): 90.94% and 92.11%
HT-29; 0.1235 µM, Repetition
  HT-29 Cell viability (%): 78.51% and 65.92%
HT-29; 0.1235 µM, first experiment
  HT-29 Cell viability (%): 82.62% and 81.99%
HT-29; 0.3704 µM, Repetition
  HT-29 Cell viability (%): 32.88% and 34.27%
HT-29; 0.3704 µM, first experiment
  HT-29 Cell viability (%): 11.40% and 11.69%
HT-29; 1.1111 µM, Repetition
  HT-29 Cell viability (%): 7.40% and 7.23%
HT-29; 1.1111 µM, first experiment
  HT-29 Cell viability (%): 7.18% and 7.44%
